The values that follow come from patent publication US20120065165A1, “COMPOSITIONS AND METHODS OF TREATING ENDOTHELIAL DISORDERS” (ARGINETIX, INC, priority 2008, published 2012).

Assay [1] concerns tissue explants from diabetic ZDF rats. In words: Ex vivo ABH treatment of tissue explants from type 2 diabetic ZDF rats (Example 6). It counts as cell-based, rat. As to conditions: vs ZLC rats. An excerpt: Biochemical and functional parameters of endothelial functions in a model of type 2 diabetes (Zucker Diabetic Fatty (ZDF) Rats) and in a control rat strain (Zucker Lean Control (ZLC) rat), are used to investigate the ex vivo effectiveness of ABH in improving these parameters. Vascular arginase activity and its role in the development of diabetic endothelial pathology have been previously characterized in models of Type 1 diabetes (Jelodar, et al., 2007 J. Reprod. Dev. 53: 317-321; Romero, et al., 2008 Circ. Res. 102: 95-102). […] Vascular endothelial function is measured using organ chambers in isolated rat arterial rings and in strips of erectile tissue collected from each rat strain.
ZDF rats have a mutation in the gene for the leptin receptor. […] Arginase I and II and eNOS mRNA and protein concentrations in these tissues are determined by RT-PCR and Western blot, respectively. Arginase activity is measured, as described in Example 4, by homogenizing the rat vessels in lysis buffer, removing cellular debris by centrifugation, and monitoring the hydrolysis of L-arginine using calorimetric determination of urea after the addition of isonitrosopropiophenone. […] The cellular location of arginase in this model of type 2 diabetes is determined by comparing the results of RT-PCR, Western blot, and arginase activity assays in endothelial-intact and endothelial-denuded aortic rings. […]

A further assay relates to arginase I. The conditions noted are these: tissue extracts from diabetic corpus cavernosa; cited from earlier work.

`N[C@@H](CCCCB(O)O)C(=O)O` [ABH, 2(S)-Amino-6-boronohexanoic acid]: the “biochemical (arginase activity, NO, ROS) and functional (vascular endothelial, erectile) parameters” value in assay [1] is “return these biochemical and functional parameters to values that are similar to those of ZLC rats”. The “levels of cGMP” value in the assay on arginase I was “increase levels of cGMP”.
